# Biological target: CDK2/Cyclin E1 (Homo sapiens (Human), UniProt P24941)
# Assay: CDK2/Cyclin E1 HTRF enzyme activity assay (Example A)
# Assay type: biochemical
# Conditions: 1 mM ATP
# Experimental: Assays were conducted in white 384-well polystyrene plates in a final reaction volume of 8 μL. […] HTRF signals were read after 1 hour at room temperature on a PHERAstar FS plate reader (BMG Labtech). Data was analyzed with IDBS XLFit and GraphPad Prism 5.0 software using a three or four parameter dose response curve to determine IC50 for each compound.
row,Structure (SMILES),IC50
1,"Cc1cccc(-n2cnc(-c3nc(NC4CCN(S(C)(=O)=O)CC4)ncc3C(F)(F)F)c2)c1C#N [Example 61, 2-Methyl-6-(4-(2-((1-(methylsulfonyl)piperidin-4-yl)amino)-5-(trifluoromethyl)pyrimidin-4-yl)-1H-imidazol-1-yl)benzonitrile]",≤ 0.05 µM
2,"CS(=O)(=O)N1CCC(Nc2ncc(C(F)(F)F)c(-c3cn(-c4cc(F)ccc4C#N)cn3)n2)CC1 [Example 57, 4-Fluoro-2-(4-(2-((1-(methylsulfonyl)piperidin-4-yl)amino)-5-(trifluoromethyl)pyrimidin-4-yl)-1H-imidazol-1-yl)benzonitrile]",≤ 0.05 µM
3,"Cc1nc(-c2nc(N[C@H]3CCN(S(C)(=O)=O)C[C@H]3F)ncc2C(F)(F)F)cn1-c1ccncc1F [Example 298, N-((3R,4S)-3-Fluoro-1-(methylsulfonyl)piperidin-4-yl)-4-(1-(3-fluoropyridin-4-yl)-2-methyl-1H-imidazol-4-yl)-5-(trifluoromethyl)pyrimidin-2-amine]",≤ 0.05 µM
4,"C[C@@]1(O)CCN(Cc2cc(F)c(-n3cnc(-c4nc(N[C@@H]5CCN(S(C)(=O)=O)C[C@H]5F)ncc4C(F)(F)F)c3)c(Cl)c2)C1 [Example 402, (R)-1-(3-Chloro-5-fluoro-4-(4-(2-(((3R,4R)-3-fluoro-1-(methylsulfonyl)piperidin-4-yl)amino)-5-(trifluoromethyl)pyrimidin-4-yl)-1H-imidazol-1-yl)benzyl)-3-methylpyrrolidin-3-ol]",≤ 0.05 µM
5,"CS(=O)(=O)N1CCC(Nc2ncc(C(F)(F)F)c(-c3cn(-c4cnccc4C#N)cn3)n2)CC1 [Example 67, 3-(4-(2-((1-(Methylsulfonyl)piperidin-4-yl)amino)-5-(trifluoromethyl)pyrimidin-4-yl)-1H-imidazol-1-yl)isonicotinonitrile]",≤ 0.05 µM
6,"Cc1nc(-c2nc(NC3CCN(S(C)(=O)=O)CC3)ncc2C(F)(F)F)cn1-c1ccc(N2CC3(CCN(C)CC3)C2)cc1F [Example 104, 4-(1-(2-Fluoro-4-(7-methyl-2,7-diazaspiro[3.5]-nonan-2-yl)phenyl)-2-methyl-1H-imidazol-4-yl)-N-(1-(methylsulfonyl)-piperidin-4-yl)-5-(trifluoromethyl)-pyrimidin-2-amine]",≤ 0.05 µM
7,"CS(=O)(=O)N1CCC(Nc2ncc(C(F)(F)F)c(-c3cn(-c4ccc(CCN5CCCCC5)cc4C#N)cn3)n2)CC1 [Example 458, 2-(4-(2-((1-(Methylsulfonyl)piperidin-4-yl)amino)-5-(trifluoromethyl)pyrimidin-4-yl)-1H-imidazol-1-yl)-5-(2-(piperidin-1-yl)ethyl)benzonitrile]",≤ 0.05 µM
8,"CC1(O)CN(CCc2cccc(-n3cnc(-c4nc(NC5CCN(S(C)(=O)=O)CC5)ncc4C(F)(F)F)c3)c2Cl)C1 [Example 372, 1-(2-Chloro-3-(4-(2-((1-(methylsulfonyl)piperidin-4-yl)amino)-5-(trifluoromethyl)pyrimi-din-4-yl)-1H-imidazol-1-yl)phenethyl)-3-methylazetidin-3-ol]",≤ 0.05 µM

# Second part, the molecule after the results:
row,IC50,Structure (SMILES)
1,≤ 0.05 µM,"CS(=O)(=O)N1CCC(Nc2ncc(C(F)(F)F)c(-c3cn(-c4cccc(Cl)c4Cl)cn3)n2)CC1 [Example 60, 4-(1-(2,3-Dichlorophenyl)-1H-imidazol-4-yl)-N-(1-(methylsulfonyl)piperidin-4-yl)-5-(trifluoromethyl)pyrimidin-2-amine]"
2,≤ 0.05 µM,"CS(=O)(=O)N1CCC(Nc2ncc(C(F)(F)F)c(-c3cn(-c4cccc(CCN5CCOCC5)c4Cl)cn3)n2)CC1 [Example 369, 4-(1-(2-Chloro-3-(2-morpholinoethyl)phenyl)-1H-imidazol-4-yl)-N-(1-(methylsulfonyl)piperidin-4-yl)-5-(trifluoromethyl)pyrimidin-2-amine]"
3,≤ 0.05 µM,"CC1(O)CN(Cc2ccc(-n3cnc(-c4nc(NC5CCN(S(C)(=O)=O)CC5)ncc4C(F)(F)F)c3)c(C(F)(F)F)c2)C1 [Example 449, 3-Methyl-1-(4-(4-(2-((1-(methylsulfonyl)piperidin-4-yl)amino)-5-(trifluoromethyl)pyrimidin-4-yl)-1H-imidazol-1-yl)-3-(trifluoromethyl)benzyl)azetidin-3-ol]"
4,≤ 0.05 µM,"COc1nccc(-n2cc(-c3nc(NC4CCN(S(C)(=O)=O)CC4)ncc3C(F)(F)F)nc2C)c1F [Example 314, 4-(1-(3-Fluoro-2-methoxypyridin-4-yl)-2-methyl-1H-imidazol-4-yl)-N-(1-(methylsulfonyl)piperidin-4-yl)-5-(trifluoromethyl)pyrimidin-2-amine]"
5,≤ 0.05 µM,"CC1(C)CN(Cc2ccc(-n3cnc(-c4nc(NC5CCN(S(C)(=O)=O)CC5)ncc4C(F)(F)F)c3)c(Cl)c2)C1 [Example 200, 4-(1-(2-Chloro-4-((3,3-dimethyl-azetidin-1-yl)methyl)-phenyl)-1H-imidazol-4-yl)-N-(1-(methyl-sulfonyl)piperidin-4-yl)-5-(trifluoromethyl)-pyrimidin-2-amine]"
6,≤ 0.05 µM,"CS(=O)(=O)N1CCC(Nc2ncc(C(F)(F)F)c(-c3cn(-c4cccc(CNC5CC5)c4Cl)cn3)n2)CC1 [Example 81, 4-(1-(2-Chloro-3-((cyclopropylamino)methyl)phenyl)-1H-imidazol-4-yl)-N-(1-(methylsulfonyl)piperidin-4-yl)-5-(trifluoromethyl)pyrimidin-2-amine]"
7,≤ 0.05 µM,"O=S(=O)(C1CC1)N1CCC(Nc2ncc(C(F)(F)F)c(-c3cn(-c4cccnc4C(F)(F)F)cn3)n2)CC1 [Example 91, N-(1-(Cyclopropylsulfonyl)piperidin-4-yl)-5-(trifluoromethyl)-4-(1-(2-(trifluoromethyl)pyridin-3-yl)-1H-imidazol-4-yl)pyrimidin-2-amine]"

# Reference: patent publication US11427567B2, “Imidazolyl pyrimidinylamine compounds as CDK2 inhibitors” (Incyte Corporation, priority 2019, dated 2022)
